From patent publication US20240343727A1, “PYRIDAZINONE OR PYRIDINONE COMPOUNDS, PREPARATION METHODS AND USES THEREOF” (InventisBio Co., Ltd., priority 2021, published 2024) come the findings set out here.

pIC50: −log10 of the molar value.

The target of this assay is T1, PARP7 (Homo sapiens, UniProt Q7Z3E1).
T1 sequence (Q7Z3E1 1-657): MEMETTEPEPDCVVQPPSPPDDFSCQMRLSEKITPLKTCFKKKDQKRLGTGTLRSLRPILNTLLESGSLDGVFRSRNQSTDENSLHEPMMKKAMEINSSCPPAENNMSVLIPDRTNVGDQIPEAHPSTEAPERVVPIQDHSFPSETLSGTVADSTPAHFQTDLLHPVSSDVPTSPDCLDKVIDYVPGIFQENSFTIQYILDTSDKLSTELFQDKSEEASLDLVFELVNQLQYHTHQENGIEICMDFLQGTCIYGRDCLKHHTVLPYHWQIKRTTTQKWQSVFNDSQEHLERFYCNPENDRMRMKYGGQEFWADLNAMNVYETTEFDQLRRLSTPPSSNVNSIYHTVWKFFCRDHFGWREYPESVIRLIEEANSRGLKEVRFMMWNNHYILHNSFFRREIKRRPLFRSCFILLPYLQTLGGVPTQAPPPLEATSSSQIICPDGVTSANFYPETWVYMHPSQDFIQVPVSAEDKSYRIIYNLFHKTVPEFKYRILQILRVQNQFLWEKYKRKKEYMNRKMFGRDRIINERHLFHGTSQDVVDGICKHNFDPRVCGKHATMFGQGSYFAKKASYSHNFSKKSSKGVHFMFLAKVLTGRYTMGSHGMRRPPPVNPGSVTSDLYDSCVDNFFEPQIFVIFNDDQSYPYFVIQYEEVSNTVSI
Kind of assay: PARP7 TR-FRET assay (binding, displacement of biotinylated Probe A). The following applies: 6 nM PARP7, 2 nM Probe A, 25° C., 30 min. The method, then: Biological Assay Example A: PARP7 TR-FRET Assay
A time-resolved fluorescence energy transfer (TR-FRET) assay was used to test binding activity of compounds to PARP7. Two microliter test compound was added in 384-well plate. Reactions were performed in a 6 uL volume by adding 4 uL mixture of PARP7 and Probe A (a biotinylated probe binding to the PARP7: N-(6-(2-(4-((2-(6-oxo-5-(trifluoromethyl)-1,6-dihydropyridazin-4-yl) isoindolin-5-yl) oxy) piperidin-1-yl) acetamido) hexyl)-5-((3aS,4S,6aR)-2-oxohexahydro-1H-thieno [3,4-d]imidazol-4-yl) pentanamide, made as reported in WO2019212937A1) in assay buffer (20 mM HEPES pH 8.0, 100 mM NaCl, 0.1% BSA, 2 mM DTT and 0.002% Tween20). The final concentration of PARP7 and Probe A were 6 nM and 2 nM, incubating with test compounds at 25° C. for 30 min. Four microliter ULight-anti 6xHis and LANCE Eu-W1024 labeled streptavidin (PerkinElmer) were added with the final concentration of ULight-anti 6xHis and LANCE Eu-W1024 at 4 nM and 0.25 nM. The reaction mixture was incubated at 25° C. for 30 min. The plate was read on a Tecan Spark plate reader (excitation wavelength at 320 nm, emission wavelength at 615 nm and 665 nm with a 90 us delay. The ratio of the 665/615 nm emission was calculated for each well to the amount of complex of PARP7 and Probe A in each well was calculated. The 0.25% DMSO vehicle was used as control and no PARP7 well was as blank well. Inhibition rate is calculated with the formula of % inhibition=100-100*(TRFcmpd-TRFblank)/(TRFcontrol−TRFblank). Inhibition IC50 is calculated with the equation of Y=Bottom+ (Top-Bottom)/(1+10^((LogIC50−X) *Hill Slope))
On the technique in general: Time-resolved FRET reads energy transfer from a long-lived donor to a nearby acceptor.
In the case of `O=C(c1cccc(Oc2n[nH]c(=O)c(C(F)(F)F)c2NCC2CC2)c1)N1CCN(c2ncc(C(F)(F)F)cn2)CC1` [Compound 204], the pIC50 (as a rule, −log10 of the IC50, conventionally taken in molar units) is over 7.00.

The compound `O=C(c1cccc(Oc2n[nH]c(=O)c(C(F)(F)F)c2N2CC3(CCC3)C2)c1)N1CCN(c2ccc(Cl)cn2)CC1` [Compound 182] had a pIC50 of over 7.00.

`C#Cc1cc(N2CCOC(CC(=O)N3CCN(c4ncc(C(F)(F)F)cn4)CC3)C2)n[nH]c1=O` (single isomer, unassigned) [Compound 45] had a pIC50 of 6.00 to 7.00.

The compound `O=C(c1cccc(Oc2n[nH]c(=O)c(C(F)(F)F)c2NCC2CCOCC2)c1)N1CCN(c2ncc(C(F)(F)F)cn2)CC1` [Compound 203] showed a pIC50 of over 7.00.

As for `Cc1c(Oc2cccc(C(=O)N3CC[C@@H](Oc4ncc(C(F)(F)F)cn4)C3)c2)n[nH]c(=O)c1C(F)(F)F` [Compound 29], the pIC50 is under 6.00.

`CO[C@H]1C[C@H](Nc2c(Oc3cccc(C(=O)N4CCN(c5ncc(C(F)(F)F)cn5)CC4)c3)n[nH]c(=O)c2C(F)(F)F)C1` [Compound 190] had a pIC50 of over 7.00.

The compound `C#Cc1ccc2c(N3CCOC(CC(=O)N4CCN(c5ncc(C(F)(F)F)cn5)CC4)C3)n[nH]c(=O)c2c1` (single isomer, unassigned) [Compound 197] had a pIC50 of over 7.00.

On to `CS(=O)(=O)Cc1ccc2c(c1)N(c1cc(C(F)(F)F)c(=O)[nH]n1)CC(CC(=O)N1CCN(c3ncc(C(F)(F)F)cn3)CC1)O2` (single isomer, unassigned) [Compound 271], for which the pIC50 is over 7.00.

Take `O=C(c1cc(Oc2n[nH]c(=O)c(C(F)(F)F)c2N2CC3(C2)CC(F)(F)C3)ccn1)N1CCN(c2ncc(C3CC3)cn2)CC1` [Compound 308]: the pIC50 is over 7.00.

As to `N#CC1(c2ccnc(N3CCN(C(=O)CC4CN(c5cc(C(F)(F)F)c(=O)[nH]n5)c5cc(F)ccc5O4)CC3)n2)CC1` (single isomer, unassigned) [Compound 343], the pIC50 is over 7.00.

Turning to `O=C(CC1CN(c2n[nH]c(=O)c3cc(Cl)cc(F)c23)CCO1)N1CCN(c2ncc(C(F)(F)F)cn2)CC1` (single isomer, unassigned) [Compound 241], the pIC50 is under 6.00.

In turn, `O=C(CC1CN(c2cc(C(F)(F)F)c(=O)[nH]n2)c2ccccc2O1)N1CCN(c2cnc(C(F)(F)F)cn2)CC1` (single isomer, unassigned) [Compound 263] gave a pIC50 of 6.00 to 7.00.

Compound `C[C@@H]1CN(c2cc(C(F)(F)F)c(=O)[nH]n2)C[C@@H](CC(=O)N2CCN(c3ncc(C(F)(F)F)cn3)CC2)O1` (stereo in doubt) [Compound 112] had a pIC50 of over 7.00.

Consider `CN(C)C1CN(c2c(Oc3cccc(C(=O)N4CCN(c5ncc(C(F)(F)F)cn5)CC4)c3)n[nH]c(=O)c2C(F)(F)F)C1` [Compound 82], for which the pIC50 is over 7.00.

Compound `O=C(COC1CCOc2c1n[nH]c(=O)c2C1CC1)N1CCN(c2ncc(C(F)(F)F)cn2)CC1` (single isomer, unassigned) [Compound 128] showed a pIC50 of over 7.00.

`COCCNc1c(Oc2cccc(C(=O)N3CCN(c4ncc(C(F)(F)F)cn4)CC3)c2)n[nH]c(=O)c1C(F)(F)F` [Compound 169]: the pIC50 is over 7.00.

In the case of `O=C(c1cccc(Oc2n[nH]c(=O)c(C(F)(F)F)c2N2CC3(CCO3)C2)c1)N1CCN(c2ncc(C(F)(F)F)cn2)CC1` [Compound 212], the pIC50 is over 7.00.

`N#CC1(c2ccc3c(c2)N(c2cc(C(F)(F)F)c(=O)[nH]n2)CC(CC(=O)N2CCN(c4ncc(C(F)(F)F)cn4)CC2)O3)CC1` (single isomer, unassigned) [Compound 137] showed a pIC50 of over 7.00.

The compound `COC[C@@H]1C[C@H](OCC(=O)N2CCN(c3ncc(C(F)(F)F)cn3)CC2)c2n[nH]c(=O)c(C(F)(F)F)c2O1` [Compound 116] showed a pIC50 of 6.00 to 7.00.

With `Cc1cc(Oc2n[nH]c(=O)c(C(F)(F)F)c2C)cc(C(=O)N2CCN(c3ncc(C(F)(F)F)cn3)CC2)c1` [Compound 23], the pIC50 is over 7.00.

Take `CN1CC[C@H](OCC(=O)N2CCN(c3ncc(C(F)(F)F)cn3)CC2)c2n[nH]c(=O)c(C(F)(F)F)c21` (single isomer, unassigned) [Compound 5]: the pIC50 was 6.00 to 7.00.

`O=C(c1cccc(Oc2n[nH]c(=O)c(C(F)(F)F)c2NC2CC3(COC3)C2)c1)N1CCN(c2ncc(C(F)(F)F)cn2)CC1` [Compound 202] had a pIC50 of over 7.00.

`O=C(CC1CN(c2cc(C(F)(F)F)c(=O)[nH]n2)c2ccc(Cl)cc2O1)N1CCN(c2ncc(C(F)(F)F)cn2)CC1` (single isomer, unassigned) [Compound 164]: the pIC50 is 6.00 to 7.00.

With `C[C@@H]1CN(C(=O)CC2CN(c3cc(C(F)(F)F)c(=O)[nH]n3)c3cc(C#N)ccc3O2)CCN1c1cnc(C(F)(F)F)cn1` (single isomer, unassigned) [Compound 153], the pIC50 is over 7.00.

`N#Cc1ccc(N2CCN(C(=O)CC3CN(c4cc(C(F)(F)F)c(=O)[nH]n4)c4cc(Cl)ccc4O3)CC2)nc1` (single isomer, unassigned) [Compound 224] showed a pIC50 of over 7.00.

Take `N#Cc1cnc(N2CCN(C(=O)c3cccc(Oc4n[nH]c(=O)c(C(F)(F)F)c4N4CC(C5CC5)C4)c3)CC2)nc1` [Compound 303]: the pIC50 is over 7.00.

The compound `O=C(CC1CN(c2cc(C(F)(F)F)c(=O)[nH]n2)c2cc(F)ccc2O1)N1CCN(c2ccc(C3CC3)cn2)CC1` (single isomer, unassigned) [Compound 301] had a pIC50 of under 6.00.

The compound `O=C(c1cc(Oc2n[nH]c(=O)c(C(F)(F)F)c2N2CC3(C2)CC(F)(F)C3)ccn1)N1CCN(c2ncc(Cl)cn2)CC1` [Compound 307] showed a pIC50 of over 7.00.

In turn, `O=C(CC1CN(c2cc(C(F)(F)F)c(=O)[nH]n2)c2cc(F)ccc2O1)N1CCN(c2ncc(OC(F)(F)F)cn2)CC1` (single isomer, unassigned) [Compound 311] gave a pIC50 of over 7.00.

Consider `O=C(c1cccc(Oc2n[nH]c(=O)c(C(F)(F)F)c2N2CC3(CC(F)C3)C2)c1)N1CCN(c2ncc(C(F)(F)F)cn2)CC1` [Compound 176], for which the pIC50 is over 7.00.

Compound `O=C(CO[C@@H]1C[C@@H](CC2CC2)Oc2c1n[nH]c(=O)c2C(F)(F)F)N1CCN(c2ncc(C(F)(F)F)cn2)CC1` (stereo in doubt) [Compound 144] showed a pIC50 of over 7.00.

Take `N#Cc1cnc(N2CCN(C(=O)CC3CN(c4cc(C(F)(F)F)c(=O)[nH]n4)c4cc(C#N)ccc4O3)CC2)nc1` (single isomer, unassigned) [Compound 218]: the pIC50 is over 7.00.

The compound `N#Cc1cnc(N2CCN(C(=O)CC3CN(c4cc(C(F)(F)F)c(=O)[nH]n4)c4ccccc4O3)CC2)nc1` (single isomer, unassigned) [Compound 250] gave a pIC50 of over 7.00.

Compound `C[C@@H]1CN(C(=O)c2cc(Oc3n[nH]c(=O)c(C(F)(F)F)c3N3CC4(C3)CC(F)(F)C4)ccn2)CCN1c1ncc(Cl)cn1` [Compound 319] gave a pIC50 of over 7.00.

Regarding `Cc1c(Oc2cc(Cl)cc(C(=O)N3CCN(c4ncc(C(F)(F)F)cn4)CC3)c2)n[nH]c(=O)c1C(F)(F)F` [Compound 22], the pIC50 is 6.00 to 7.00.

Turning to `O=C(CC1CN(c2cc(C(F)(F)F)c(=O)[nH]n2)c2cc(C3CC3)ccc2O1)N1CCN(c2ncc(C(F)(F)F)cn2)CC1` (single isomer, unassigned) [Compound 134], the pIC50 is over 7.00.

The compound `C[C@@H]1C[C@H](OCC(=O)N2CCN(c3ncc(C(F)(F)F)cn3)CC2)c2n[nH]c(=O)c(C(F)(F)F)c2O1` [Compound 115] had a pIC50 of 6.00 to 7.00.

In turn, `COC[C@H]1C[C@@H]1Nc1c(Oc2cccc(C(=O)N3CCN(c4ncc(C(F)(F)F)cn4)CC3)c2)n[nH]c(=O)c1C(F)(F)F` [Compound 198] showed a pIC50 of over 7.00.

Regarding `O=C(CC1CN(c2cc(C(F)(F)F)c(=O)[nH]n2)c2cc(Cl)ccc2O1)N1CCN(c2ncc(C(F)(F)F)cn2)CC1` (single isomer, unassigned) [Compound 132], the pIC50 was over 7.00.
